In brackets after ≈: the same amount, converted by molar mass.
Columns and labels:
Type in all cases: cell-based
[1] = test system: A549 (human non-small lung cell); test: In vitro antitumor effect against human tumor cell lines, SRB assay, A549; settings: A549 cells, 48 hours; for IC50: Homo sapiens, read-out: ED50 A 549
Method: (§1) In vitro antitumor effect against human tumor cell lines.
(§2) a. Human solid tumor cell lines, A549(non-small lung cell), SKMEL-2(melanoma), HCT-15(colon), SKOV-3(ovarian), XF-498(CNS) were cultured at 37° C. in 5% CO2 incubators using RPMI 1640 media containing 10% FBS, while they were transfer-cultured successively once or twice per week. Cell cultures were dissolved in a solution of 0.25% trypsin and 3 mM CDTA PBS(−) and then cells were separated from media which the cells were sticked on.
(§3) b. 5×10^3˜2×10^4 cells were added into each well of 96-well plate and cultured in 5% CO2 incubator, at 37° C., for 24 hours.
(§4) c. Each sample drug was dissolved in a little DMSO and diluted with the used medium to a prescribed concentration for experiments, wherein the final concentration of DMSO was controlled below 0.5%.
(§5) d. Medium of each well cultured for 24 hours as above b. was removed by aspiration. Each 200 μl of drug samples prepared in c. was added into each well and the wells were cultured for 48 hours. Tz(time zero) plates were collected at the point of time drugs were added.
(§6) e. According to the SRB assay method, cell fixing with TCA, staining with 0.4% SRB solution, washing with 1% acetic acid and elution of dye with 10 mM Tris solution were carried out on Tz plates and culture-ended plates, whereby OD values were measured at 520 nm.
(§7) a. Time zero(Tz) value was determined with measuring the SRB protein amounts of the Tz plates collected at the point of time drugs were added.
(§8) b. Control value(C) was determined with the OD values of wells untreated with a drug.
(§9) c. Drug-treated test value(T) was determined with the OD values of drug-treated wells.
(§10) d. Effects of drugs were estimated with growth stimulation, net growth inhibition, net killing etc., being calculated from Tz, C and T.
(§11) e. If T≧Tz, cellular response function was calculated by 100×(T−Tz)/(C−Tz), and if T<Tz, by 100×(T−Tz)/Tz.

[2] = test system: XF 498 (human CNS); test: In vitro antitumor effect against human tumor cell lines, SRB assay, XF 498; settings: 48 hours; for ED50 XF-498: XF-498 cells; for IC50: Homo sapiens, XF498, XF-498 cells, read-out: ED50 XF-498
Method: as §1, §2, §3, §4, §5, §6, §7, §8, §9, §10, §11

[3] = test system: HCT-15 (human colon); test: In vitro antitumor effect against human tumor cell lines, SRB assay, HCT-15; settings: HCT 15 cells, 48 hours; for IC50: Homo sapiens, read-out: ED50 HCT 15
Method: as §1, §2, §3, §4, §5, §6, §7, §8, §9, §10, §11

[4] = test system: SKOV-3 (human ovarian); test: In vitro antitumor effect against human tumor cell lines, SRB assay, SKOV-3; settings: SK-OV-3 cells, 48 hours; for IC50: Homo sapiens, read-out: ED50 SK-OV-3
Method: as §1, §2, §3, §4, §5, §6, §7, §8, §9, §10, §11

[5] = test system: SKMEL-2 (human melanoma); test: In vitro antitumor effect against human tumor cell lines, SRB assay, SKMEL-2; settings: SK-MEL-2 cells, 48 hours; for IC50: Homo sapiens, read-out: ED50 SK-MEL-2
Method: as §1, §2, §3, §4, §5, §6, §7, §8, §9, §10, §11

Row | IC50 [1] [ng/mL] | IC50 [2] [ng/mL] | IC50 [3] [ng/mL] | IC50 [4] [ng/mL] | IC50 [5] [ng/mL] | Compound | ED50 A 549 [1] [ng/mL] | ED50 XF-498 [2] [ng/mL] | ED50 HCT 15 [3] [ng/mL] | ED50 SK-OV-3 [4] [ng/mL] | ED50 SK-MEL-2 [5] [ng/mL]
1 | – | – | – | – | – | COc1cc(C)c(C)cc1N=C(NO)N1CCN(c2cc(C)cc(C)c2)CC1 [Example 180, N-Hydroxy-N′-(4,5-dimethyl-2-methoxyphenyl-1-yl)-[4-(3,5-dimethylphenyl)piperazin-1-yl]carboxyimidamide] | 280 (≈ 0.732 µM) | 240 (≈ 0.627 µM) | 160 (≈ 0.418 µM) | 160 (≈ 0.418 µM) | 310 (≈ 0.81 µM)
2 | – | – | – | – | – | N.N.[Cl][Pt][Cl] [Cisplatin, reference compound] | 910 | 770 | 3170 | 1320 | 870
3 | – | – | – | – | – | CCc1nc(OC)c(N=C(NO)N2CCN(c3cc(OC)cc(OC)c3)CC2)cc1C(=O)OC [Example 159, N-Hydroxy-N′-(6-ethyl-5-methoxycarbonyl-2-methoxypyridin-3-yl)-[4-(3,5-dimethoxyphenyl)piperazin-1-yl]carboxyimidamide] | 29 (≈ 0.0612 µM) | 6 (≈ 0.0127 µM) | 0.6 (≈ 0.00127 µM) | 10 (≈ 0.0211 µM) | 2 (≈ 0.00422 µM)
4 | – | – | – | – | – | COc1cc(OC)cc(N2CCN(C(=Nc3cc(C)c(C)nc3OC)NO)CC2)c1 [Example 101, N-Hydroxy-N′-(5,6-dimethyl-2-methoxypyridin-3-yl)-[4-(3,5-dimethoxyphenyl)piperazin-1-yl]carboxyimidamide] | 0.3 (≈ 0.000722 µM) | 0.2 (≈ 0.000481 µM) | 0.1 (≈ 0.000241 µM) | 0.3 (≈ 0.000722 µM) | 0.3 (≈ 0.000722 µM)
5 | – | – | – | – | – | COc1nc(C)c(C)cc1N=C(NO)N1CCN(c2cc(CO)cc(CO)c2)CC1 [Example 107, N-Hydroxy-N′-(5,6-dimethyl-2-methoxypyridin-3-yl)-{4-[3,5-bis-(hydroxymethyl)phenyl]piperazin-1-yl}carboxyimidamide] | 32 (≈ 0.077 µM) | 8 (≈ 0.0193 µM) | 9 (≈ 0.0217 µM) | 13 (≈ 0.0313 µM) | 5 (≈ 0.012 µM)
6 | 204 (≈ 0.526 µM) | 340 (≈ 0.877 µM) | 67 (≈ 0.173 µM) | 677 (≈ 1.75 µM) | 283 (≈ 0.73 µM) | COc1nc(C)c(C)nc1NC(=O)N1CCN(c2ccccc2SC)CC1 [Example 14, 1-[(5,6-Dimethyl-2-methoxypyrazin-3-yl)aminocarbonyl]-4-(2-methylthiophenyl)piperazine] | – | – | – | – | –
7 | 170 (≈ 0.389 µM) | 270 (≈ 0.617 µM) | 50 (≈ 0.114 µM) | 210 (≈ 0.48 µM) | 930 (≈ 2.13 µM) | COc1cc(OC)cc(N2CCN(C(=O)N(C)c3nc4ccccc4nc3OC)CC2)c1 [Example 53, 1-[(2-Methoxyquinoxalin-3-yl) N-methylaminocarbonyl]-4-(3,5-dimethoxyphenyl)piperazine] | – | – | – | – | –
8 | 410 (≈ 1.01 µM) | 810 (≈ 2 µM) | 390 (≈ 0.962 µM) | 1010 (≈ 2.49 µM) | 370 (≈ 0.912 µM) | COc1nc2ccccc2nc1NC(=O)N1CCN(c2ccccc2C(C)C)CC1 [Example 40, 1-[(2-Methoxyquinoxalin-3-yl)aminocarbonyl]-4-(2-isoprop-ylphenyl)piperazine] | – | – | – | – | –
9 | – | – | – | – | – | COc1nc2ccccc2nc1NC(=O)N1CCN(c2cccc(Br)c2)CC1 [Example 45, 1-[(2-Methoxyquinoxalin-3-yl)aminocarbonyl]-4-(3-bromop-henyl)piperazine] | 0.1 (≈ 0.000226 µM) | 0.2 (≈ 0.000452 µM) | 0.1 (≈ 0.000226 µM) | 0.2 (≈ 0.000452 µM) | <0.1
10 | – | – | – | – | – | COc1nc(C)c(C(C)=O)cc1N=C(NO)N1CCN(c2cc(C)cc(C)c2)CC1 [Example 132, N-Hydroxy-N′-(5-acetyl-2-methoxy-6-methylpyridin-3-yl)-[4-(3,5-dimethylphenyl)piperazin-1-yl]carboxyimidamide] | 11 (≈ 0.0267 µM) | 2 (≈ 0.00486 µM) | 1 (≈ 0.00243 µM) | 7 (≈ 0.017 µM) | 1 (≈ 0.00243 µM)

— US6683184B2, “Piperazine derivatives and process for the preparation thereof” (Samjin Pharmaceutical Co., Ltd., priority 1999, dated 2004)
